Data on 16 compounds can be found in patent US9955689B2, “Method for promoting plant growth” (SUMITOMO CHEMICAL COMPANY, LIMITED, priority 2012, dated 2018).

The structures appear in SMILES notation.

The subject of the first assay is Nicotiana benthamiana. Description: Test Example 5: growth promotion under low-temperature stress by hydroponics of Nicotiana benthamiana (1 ppm). The class given is in vivo. The following applies: compound at 1 ppm, 7 days at 1.5±1.0° C. low-temperature stress, then 3 days at 22° C., 5 or greater = growth promotion effect, read-out: value of a relative leaf area (Equation (1), area of green leaf). How it is done:
Test Example 5. Test for Evaluating Growth Promotion Under Low-Temperature Stress by Hydroponics of Nicotiana benthamiana
(§1) (Cultivation and Compound Treatment)
A DMSO solution, which contained one of the compounds 9, 10, 15, 16, 27 to 29, 31 to 37, 40, 44, 47, 48, 52, 55, 56, 58, 61, 63, 81, 87, 89, 92, 95, 98, 100, 102, 105, 108, 109, 111, 113, and 115 of the present invention at a concentration of 1,000 ppm, was prepared. The DMSO solution of the compound of the present invention was added at a volume ratio of 1/1,000 to the Murashige-Scoog medium of a ½-fold concentration (a medium containing 2.3 g of mixed salts (manufactured by Wako Pure Chemical Industries, Ltd.), 200 mg of Myo-inositol (manufactured by Sigme-Aldrich Co. LLC.), 2 mg of niconitic acid (manufactured by Wako Pure Chemical. Industries, Ltd.), 2 mg of pyridoxine hydrochloride (manufactured by Wako Pure Chemical Industries, Ltd.), 20 mg of thiamine hydrochloride (manufactured by Wako Pure Chemical Industries, Ltd.), 20 g of sucrose (manufactured by Wako Pure Chemical Industries, Ltd.), and 1 g of MES (manufactured by DOJINDO LABORATORIES) respectively per 1 L of water and having pH adjusted to 5.8), thereby preparing a medium containing the compound of the present invention at a concentration of 1 ppm.
(§2) Seeds of Nicotiana benthamiana were seeded in the 5 μL of the medium and cultured overnight at 22° C. Thereafter, 45 μL of the medium containing the compound of the present invention at a concentration of 1 ppm was added thereto, and the seeds are cultured for 7 days at 22° C. under the conditions of an illuminance of 4,000 lux, and a day length of 16 hours, and the seedlings raised from the Nicotiana benthamiana were treated with the compound. Moreover, instead of the above medium a test plot, which was obtained by performing the same treatment by using a medium prepared by adding DMSO to the Murashige⋅Scoog medium of ½-fold concentration at a volume ratio of 1/1,000, was used as a control plot not treated with the compound.
(§3) (Low-Temperature Stress Treatment)
(§4) The seedlings of the Nicotiana benthamiana treated with the compound were subjected to low-temperature treatment by being cultured for 7 days at 1.5±1.0° C., under the conditions of an illuminance of 2,000 lux, and a day length of 16 hours.
The seedlings of the Nicotiana benthamiana having undergone the low-temperature stress treatment were cultured for 3 days at 22° C. under the conditions of an illuminance of 4,000 lux, and a day length of 16 hours. Thereafter, the area of green leaf was quantified by Scanalyzer HTS (manufactured by LemnaTec GmbH). Moreover, the value of the control plot not treated with the compound that had not yet been subjected to the low-temperature stress treatment was measured in the same manner. A value of a relative leaf area was calculated based on the following equation (1), and if the relative value of leaf area was 5 or greater, the compound was evaluated to have a growth promotion effect. As a result of the evaluation, it was confirmed that when the plant was treated with one of the compounds 9, 10, 15, 16, 27 to 29, 31 to 37, 40, 44, 47, 48, 52, 55, 56, 58, 61, 63, 81, 87, 89, 92, 95, 98, 100, 102, 105, 108, 109, 111, 113, and 115 of the present invention at 1 ppm, the value of a relative leaf area was 5 or greater, compared to the area of green leaf of the control plot not treated with compound. Accordingly, it was confirmed that the treatment using the compound of the present invention improve a growth promotion effect. Relative leaf area=100*(a green area of a plot treated with the compound of the present invention minus(−) a green area of a plot not treated with the compound of the present invention)/(a green area of a control plot not treated with the compound of the present invention that had not yet been subjected to low-temperature stress treatment minus(−) a green area of a control plot not treated with the compound of the present invention) Equation (1): […]
As for `O=C(O)c1sc2ccccc2c1C(=O)O` [Present compound 55, benzo[b]thiophene-2,3-dicarboxylic acid], the relative leaf area at 1 ppm was not below 5%.

Another assay has as its system Corn (Variety: Pioneer 31P41). The assay is described as follows: Test Example 8: growth promotion under low-temperature stress by corn seed treatment. The class given is in vivo. To be noted: corn seed treatment: compound 21 0.5 g, compound 55 0.5 g, 5 g or 50 g per 100 kg corn seeds; 4 days at 2.5±1° C., then 4 days at 27° C. As for the experimental part:
Test Example 8. Test for Evaluating Growth Promotion Under Low-Temperature Stress by Corn Seed Treatment
Corn (Variety: Pioneer 31P41 (Manufactured by Pioneer Hi-Bred Japan)
A blank slurry solution containing 10% (V/V) color coat red (Becker Underwood, Inc.), 10% (V/V) CF-Clear (Becker Underwood, Inc.), and 1.66% Maxim4FS (Syngenta) was prepared. The compound 21 of the present invention was dissolved in the blank slurry such that 0.5 g of the compound was used for treatment per 100 kg corn seeds, and the compound 55 of the present invention was dissolved in the blank slurry such that 0.5 g, 5 g or 50 g of the compound was used for treatment per 100 kg corn seeds respectively, thereby preparing a slurry solution.
Zero point three five (0.35) ml of the slurry solution per 14.4 g of the seeds was put into a 50 ml centrifugal settling tube (manufactured by Becton, Dickinson and Company, Japan), and the slurry solution was stirred until it dries, thereby coating the seeds. Moreover, the seeds coated with the blank slurry were used as seeds for an untreated control plot. […]
After low-temperature stress treatment was performed, the seeds were cultured for 4 days at 27° C., under the conditions of an illuminance of 5,000 lux, and a day length of 16 hours. Thereafter, a fresh weight of the aerial part in plant was measured, and an average weight of each individual was determined. […]
Regarding `Cc1ccc2sc(C(=O)O)cc2c1` [Present compound 21], the “fresh weight of the aerial part compared with the untreated control plot” value is “larger”.

With `O=C(O)c1sc2ccccc2c1C(=O)O` [Present compound 55, benzo[b]thiophene-2,3-dicarboxylic acid], the “fresh weight of the aerial part compared with the untreated control plot” value was “larger”.

The test system of another assay is Nicotiana benthamiana. The assay is described as follows: Test Example 6: growth promotion under low-temperature stress by hydroponics of Nicotiana benthamiana (0.1 ppm). In kind it is in vivo. The following applies: compound at 0.1 ppm, 7 days at 1.5±1.0° C. low-temperature stress, then 3 days at 22° C., 5 or greater = growth promotion effect, read-out: value of a relative leaf area (Equation (1), area of green leaf). How it is done:
Test Example 6. Test for Evaluating Growth Promotion Under Low-Temperature Stress by Hydroponics of Nicotiana benthamiana
as §1
A DMSO solution, which contained one of the compounds 2, 3, 7, 11 to 13, 20, 23, 24, 30, 38, 39, 41 to 43, 46, 50, 64, 68, 80, 82, 88, 93, 94, 96, 104, 107, and 112 of the present invention at a concentration of […], was prepared. The DMSO solution of the compound of the present invention was added at a volume ratio of 1/1,000 to the Murashige⋅Scoog medium of a ½-fold concentration (a medium containing 2.3 g of mixed salts (manufactured by Wako Pure Chemical Industries, Ltd.), 200 mg of Myo-inositol (manufactured by Sigme-Aldrich Co. LLC.), 2 mg of niconitic acid (manufactured by Wako Pure Chemical Industries, Ltd.), 2 mg of pyridoxine hydrochloride (manufactured by Wako Pure Chemical Industries, Ltd.), 20 mg of thiamine hydrochloride (manufactured by Wako Pure Chemical Industries, Ltd.), 20 g of sucrose (manufactured by Wako Pure Chemical Industries, Ltd.), and 1 g of […] (manufactured by DOJINDO LABORATORIES) respectively per 1 L of water and having pH adjusted to 5.8), thereby preparing a medium containing the compound of the present invention at a concentration of 0.1 ppm.
as §2, with “concentration of 0.1 ppm was” for “concentration of 1 ppm was”, “to the Murashige′Scoog medium of” for “to the Murashige⋅Scoog medium of”
as §3, §4
The seedlings of the Nicotiana benthamiana having undergone the low-temperature stress treatment were cultured for 3 days at 22° C., under the conditions of an illuminance of 4,000 lux, and a day length of 16 hours. Thereafter, the area of green leaf was quantified by Scanalyzer HTS (manufactured by LemnaTec GmbH). Moreover, the value of the control plot not treated with the compound that had not yet been subjected to the low-temperature stress treatment was measured in the same manner. A value of a relative leaf area was calculated based on the following equation (1), and if the relative value of leaf area was 5 or greater, the compound was evaluated to have a growth promotion effect. As a result of the evaluation, it was confirmed that when the plant was treated with one of the compounds 2, 3, 7, 11 to 13, 20, 23, 24, 30, 38, 39, 41 to 43, 46, 50, 64, 68, 80, 82, 88, 93, 94, 96, 104, 107, and 112 of the present invention at 0.1 ppm, the value of a relative leaf area was 5 or greater, compared to the area of green leaf of the control plot not treated with compound. Accordingly, it was confirmed that the treatment using the compound of the present invention improve a growth promotion effect. Relative leaf area=100*(a green area of a plot treated with the compound of the present invention minus(−) a green area of a plot not treated with the compound of the present invention)/(a green area of a control plot not treated with the compound of the present invention that had not yet been subjected to low-temperature stress treatment minus(−) green area of a control plot not treated with the compound of the present invention) Equation (1): […]
`C=Cc1ccc2cc(C(=O)O)sc2c1` [Present compound 30, 6-vinylbenzo[b]thiophene-2-carboxylic acid]: the relative green leaf area at 0.1 ppm is not below 5%.

In the case of `O=C(O)c1cc2cc(-c3cccc(Cl)c3)ccc2s1` [Present compound 38, 5-(3-chlorophenyl)benzo[b]thiophene-2-carboxylic acid], the relative green leaf area at 0.1 ppm was not below 5%.

In the case of `O=C(O)c1cc2cc(-c3ccc(Cl)cc3)ccc2s1` [Present compound 39, 5-(4-chlorophenyl)benzo[b]thiophene-2-carboxylic acid], the relative green leaf area at 0.1 ppm was not below 5%.

For the compound `O=C(O)c1cc2cc(-c3ccncc3)ccc2s1` [Present compound 46, 5-(4-pyridyl)benzo[b]thiophene-2-carboxylic acid], the relative green leaf area at 0.1 ppm was not below 5%.

Consider `O=C(O)c1cc2cc(-c3cccs3)ccc2s1` [Present compound 50, 5-(2-thienyl)benzo[b]thiophene-2-carboxylic acid], for which the relative green leaf area at 0.1 ppm is not below 5%.

For `CN(C)c1cccc2sc(C(=O)O)cc12` [Present compound 64, 4-(dimethylamino)benzo[b]thiophene-2-carboxylic acid], the relative green leaf area at 0.1 ppm was not below 5%.

As to `O=C(O)c1sc2ccccc2c1O` [Present compound 80, 3-hydroxybenzo[b]thiophene-2-carboxylic acid], the relative green leaf area at 0.1 ppm was not below 5%.

As for `COc1ccc2sc(C(=O)O)cc2c1` [Present compound 82, 5-methoxybenzo[b]thiophene-2-carboxylic acid], the relative green leaf area at 0.1 ppm was not below 5%.

As to `O=C(O)c1sc2ccccc2c1OCc1ccccc1` [Present compound 88, 3-benzyloxybenzo[b]thiophene-2-carboxylic acid], the relative green leaf area at 0.1 ppm was not below 5%.

As to `Cc1ccccc1Oc1cccc2cc(C(=O)O)sc12` [Present compound 94, 7-(2-methylphenoxy)benzo[b]thiophene-2-carboxylic acid], the relative green leaf area at 0.1 ppm is not below 5%.

For the compound `O=C(O)c1cc2cccc(Oc3ccc(OC(F)(F)F)cc3)c2s1` [Present compound 96], the relative green leaf area at 0.1 ppm is not below 5%.

As to `O=C(O)c1cc2cc(C(F)(F)F)cc(Cl)c2s1` [Present compound 104, 7-chloro-5-trifluoromethylbenzo[b]thiophene-2-carboxylic acid], the relative green leaf area at 0.1 ppm was not below 5%.

As for `O=C(O)c1sc2ccc(C(F)(F)F)cc2c1C(F)(F)F` [Present compound 107, 3,5-bis(trifluoromethyl)benzo[b]thiophene-2-carboxylic acid], the relative green leaf area at 0.1 ppm was not below 5%.

Regarding `COc1c(C(=O)O)sc2ccc(C(F)(F)F)cc12` [Present compound 112, 3-methoxy-5-trifluoromethylbenzo[b]thiophene-2-carboxylic acid], the relative green leaf area at 0.1 ppm was not below 5%.
